Measured values published in US10744201B2, “Method for treating rheumatoid arthritis with a human IL-6 receptor antibody and methotrexate” (Chugai Seiyaku Kabushiki Kaisha, priority 2003, dated 2020).

Assays:
[1] = tested on: patients with active rheumatoid arthritis; assay: Phase II trial of MRA alone and with methotrexate: ACR 20/50/70 improvement rates; type: in vivo, human; details: for ACR 20 / ACR 50 / ACR 70: 16 weeks
Method: (§1) The efficacy, safety and tolerability of MRA were assessed.
Study design: a double-blind, randomized, parallel group study by central randomization method
ACR improvement criteria: The cases where among the following 7 items, the number of swelling joints and the number of pain joints are improved by 20% or more and improvement by 20% or more is observed in three out of the remaining five items are determined as 20% or more improvement in ACR criteria. Further, 50% and 70% improvement cases indicate the patient cases where the above 20% improved parts are improved by 50% and 70%, respectively.
(1) Number of swelling joints
(2) Number of tender joints
(3) Pain assessment by a patient
(4) Global assessment of disease activity by a patient
(5) Global disease activity by a physician
(6) Assessment of physical function by a patient

[2] = tested on: patients with active rheumatoid arthritis; assay: Phase II trial: safety (adverse events, laboratory data, infusion reaction); details: for serious adverse events of which causal relationship could not be denied: hypersensitivity: no combination with MTX, after the 3rd or 4th MRA administration
Method: Subjects: Patients with rheumatoid arthritis diagnosed based on the 1987 disease classification of the American College of Rheumatology (ACR), of at least 6 months duration were enrolled.
Dosage and Administration: Seven groups: 0 mg/kg (placebo)+MTX, 2 mg/kg MRA+MTX, 4 mg/kg MRA+MTX, 8 mg/kg MRA+MTX, 2 mg/kg MRA+MTX placebo, 4 mg/kg MRA+MTX placebo, and 8 mg/kg MRA+MTX placebo. MRA or placebo administration is given by intravenous infusion, at 4-week intervals. MTX or MTX placebo administration is given orally, once weekly, at 10-25 mg/week.
Study Method: The assigned dose was administered by intravenous infusion, four times in total at 4-week intervals, and efficacy and safety were evaluated at 2-week intervals up to 16 weeks, and follow-up observation was done at 20 weeks. The primary endpoint for efficacy was the rate of ACR 20 at 16 weeks (4 weeks after the last dose). Secondary endpoints included rates of ACR 50 and ACR 70 at 16 weeks (4 weeks after the last dose).
Among 359 enrolled patients, the safety evaluation sets, the full analysis sets, and PPS (per protocol set) were 359, 354, and 307, respectively.
An infusion reaction was defined as an adverse event occurring within 24 hours of study drug administration.

[3] = tested on: patients with active rheumatoid arthritis; assay: Phase II trial: development of anti-MRA antibodies; type: in vivo, human; details: 8 mg/kg treatment groups
Method: as §1
The development of anti-MRA antibodies was examined. None occurred at the 8 mg/kg treatment groups (monotherapy or combination with MTX). At 2 or 4 mg/kg treatment groups, the number of incidents was less in groups in combination with MTX than MRA monotherapy groups.

[4] = tested on: patients with active rheumatoid arthritis; assay: Phase II trial: reduction of swollen joint count; type: in vivo, human
Method: as §1
Reduction of Swollen Joint Count (Table 2)
The mean swollen joint count was similar across all the treatment groups at baseline.

[5] = 2 mg/kg MRA i.v. at 4-week intervals x4, with MTX or MTX placebo 10-25 mg/week oral
[6] = 4 mg/kg MRA i.v. at 4-week intervals x4, with MTX or MTX placebo 10-25 mg/week oral
[7] = 8 mg/kg MRA i.v. at 4-week intervals x4, with MTX or MTX placebo 10-25 mg/week oral
[8] = 0 mg/kg (placebo)+MTX 10-25 mg/week oral (control group)

“MRA: recombinant humanised anti-human interleukin-6 receptor monoclonal antibody of the IgG1 sub-class that inhibits the function of IL-6” was tested, and the “ACR 20” value [1, 5] was 30.8%, the “ACR 50” value [1, 5] was 5.8% and the “ACR 70” value [1, 5] was 1.9%. The “ACR 20” value [1, 6] was 61.1%, the “ACR 50” value [1, 6] was 27.8% and the “ACR 70” value [1, 6] was 5.6%. The “ACR 20” value [1, 7] was 62.7%, the “ACR 50” value [1, 7] was 41.2% and the “ACR 70” value [1, 7] was 15.7%. The “dose dependency in ACR 20 improvement rate” value ([1]; 2, 4, 8 mg/kg MRA alone groups) was “statistically significant dose dependency”, the “dose dependent response for ACR50 and ACR70 improvement rate” value ([1]; 2, 4, 8 mg/kg MRA, alone and MTX-combined groups) was “statistically significant dose dependent response” and the “dose-response (overall result)” value ([1]; in vivo) was “clear dose-response”. The “effectiveness to treat patients with rheumatoid arthritis” value ([1]; in vivo) was “confirmed”, the “serious adverse events of which causal relationship could not be denied: hypersensitivity” value ([2]; 2 mg/kg MRA group) was “four patients of hypersensitivity” and the “serious adverse events of which causal relationship could not be denied: hypersensitivity” value ([2]; 4 mg/kg MRA group) was “one patient of hypersensitivity”. For the same compound, the “Atherogenic Index” value ([2]; MRA groups) was “no overall change”, the “laboratory data relating to lipids (total cholesterol, HDL cholesterol and triglyceride)” value ([2]; MRA groups) was “increase” and the “number of patients experiencing an infusion reaction (adverse event within 24 hours of study drug administration)” value ([2]; across treatment groups) was “possible inverse dose-response”. The “ALT and AST levels (hepatic functions)” value ([2]; equivalent to elevations observed in other patients with rheumatoid arthritis) was “elevation”, the “CRP and ESR (parameters for disease activity)” value ([2]; in a dose dependent manner) was “decreases of CRP and ESR” and the “hemoglobin (parameter for disease activity)” value ([2]; in a dose dependent manner) was “elevation of hemoglobin”. For the same compound, the neutrophil count ([2]; in some patients) was “Slight transient decrease”, the safety ([2]; in vivo) was “confirmed” and the “development of anti-MRA antibodies” value [3] was “None”. For the same compound, the “Swollen joint count, Change from Baseline, Mean ± SD” value ([4]; 2 mg/kg MRA, with MTX or MTX placebo, Week 16) was −4.5 ± 5.7, the “Swollen joint count, Change from Baseline, Mean ± SD” value ([4]; 4 mg/kg MRA, with MTX or MTX placebo, Week 16) was −5.8 ± 4.1 and the “Swollen joint count, mean difference (95% CI) to the MTX group” value ([4]; 8 mg/kg MRA group vs MTX group, Week 16) was −2.31 (−4.07, −0.55). The “Swollen joint count, Change from Baseline, Mean ± SD” value ([4]; 8 mg/kg MRA, with MTX or MTX placebo, Week 16) was −8.4 ± 4.6 and the “linear dose-relationship of reduction in swollen joint count” value ([4]; 2, 4, 8 mg/kg MRA groups, monotherapy p<0.001, combination p=0.004) was “statistically significant linear dose-relationship”.

For `CN(Cc1cnc2nc(N)nc(N)c2n1)c1ccc(C(=O)N[C@@H](CCC(=O)O)C(=O)O)cc1` [MTX, methotrexate], the “ACR 20” value [1, 8] was 40.8%, the “ACR 50” value [1, 8] was 28.6% and the “ACR 70” value [1, 8] was 16.3%. For the same compound, the “Swollen joint count, Change from Baseline, Mean ± SD” value ([4]; MTX alone (MRA placebo), Week 16) was −5.7 ± 6.1.
